Experimental data reported in US10513521B2, “Compositions and methods for inhibiting BMP” (The Brigham and Women's Hospital, Inc., priority 2014, dated 2019).

Tests used:
ALK1 = ALK1 (Homo sapiens, UniProt P37023); assay: TR-FRET enzymatic ALK kinase assay, ALK1
Protocol: (§1) Briefly, the ALKs enzymatic assay was initiated by dispense 2.5 μl enzyme in 1× kinase reaction buffer. The assay plate was then added with compounds followed by incubation at room temperature for 10 minutes. Then 2.5 μl/well substrate was added.

ALK3 = ALK3 (Homo sapiens, UniProt P36894); assay: TR-FRET enzymatic ALK kinase assay, ALK3
Protocol: as §1

ALK6 = ALK6 (Homo sapiens, UniProt O00238); assay: TR-FRET enzymatic ALK kinase assay, ALK6
Protocol: as §1

ALK4 = target: T1, ALK4 (Homo sapiens, UniProt P36896); assay: TR-FRET enzymatic ALK kinase assay, ALK4
T1 sequence (P36896 24-505): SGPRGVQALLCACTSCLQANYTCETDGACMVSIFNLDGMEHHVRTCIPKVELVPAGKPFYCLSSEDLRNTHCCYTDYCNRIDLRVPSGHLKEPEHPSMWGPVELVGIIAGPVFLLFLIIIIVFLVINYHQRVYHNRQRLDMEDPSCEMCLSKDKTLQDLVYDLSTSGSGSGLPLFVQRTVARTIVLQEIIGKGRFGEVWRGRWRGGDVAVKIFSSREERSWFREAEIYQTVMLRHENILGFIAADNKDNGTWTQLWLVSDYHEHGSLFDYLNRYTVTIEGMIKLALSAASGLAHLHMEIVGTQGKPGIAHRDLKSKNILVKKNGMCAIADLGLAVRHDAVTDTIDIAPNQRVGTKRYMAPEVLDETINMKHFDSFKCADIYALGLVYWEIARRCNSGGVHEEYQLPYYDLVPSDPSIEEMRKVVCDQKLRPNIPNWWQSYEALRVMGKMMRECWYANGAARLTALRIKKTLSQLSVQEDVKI
Protocol: as §1

ALK5 = target: T2, ALK5 (Homo sapiens, UniProt P36897); assay: TR-FRET enzymatic ALK kinase assay, ALK5
T2 sequence (P36897 34-503): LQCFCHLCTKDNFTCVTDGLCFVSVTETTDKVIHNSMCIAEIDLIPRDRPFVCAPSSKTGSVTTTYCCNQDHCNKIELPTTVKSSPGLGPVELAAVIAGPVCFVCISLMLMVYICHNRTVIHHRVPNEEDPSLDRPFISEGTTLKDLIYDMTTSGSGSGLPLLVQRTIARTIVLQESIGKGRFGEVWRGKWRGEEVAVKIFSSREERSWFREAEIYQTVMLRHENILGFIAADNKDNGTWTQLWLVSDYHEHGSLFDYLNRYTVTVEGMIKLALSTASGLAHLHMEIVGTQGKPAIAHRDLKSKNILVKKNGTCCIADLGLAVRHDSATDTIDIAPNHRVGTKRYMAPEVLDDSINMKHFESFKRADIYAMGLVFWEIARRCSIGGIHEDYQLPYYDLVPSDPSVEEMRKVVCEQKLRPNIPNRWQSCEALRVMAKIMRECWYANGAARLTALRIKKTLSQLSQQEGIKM
Protocol: Six ALK kinase enzyme assays were developed for determination of compound activities on ALK1, ALK2, ALK3, ALK4, ALK5 and ALK6.
as §1

ALK2 = target: T3, ALK2 (Homo sapiens, UniProt Q04771); assay: TR-FRET enzymatic ALK kinase assay, ALK2
T3 sequence (Q04771 21-509): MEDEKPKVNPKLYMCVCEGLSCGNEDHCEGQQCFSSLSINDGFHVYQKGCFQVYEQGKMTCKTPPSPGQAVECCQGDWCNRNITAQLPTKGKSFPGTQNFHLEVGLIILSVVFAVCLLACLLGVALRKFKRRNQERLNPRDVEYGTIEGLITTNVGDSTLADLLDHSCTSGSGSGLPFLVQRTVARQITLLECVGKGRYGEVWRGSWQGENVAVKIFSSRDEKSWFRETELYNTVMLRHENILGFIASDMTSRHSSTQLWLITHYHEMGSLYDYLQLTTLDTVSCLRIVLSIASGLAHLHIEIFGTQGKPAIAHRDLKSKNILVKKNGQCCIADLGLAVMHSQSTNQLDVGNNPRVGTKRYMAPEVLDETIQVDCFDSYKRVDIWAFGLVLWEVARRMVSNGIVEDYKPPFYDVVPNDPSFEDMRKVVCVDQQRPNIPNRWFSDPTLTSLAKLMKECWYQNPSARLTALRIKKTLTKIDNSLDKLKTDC
Protocol: as §1

Chain of ALK3 (P36894 24-532): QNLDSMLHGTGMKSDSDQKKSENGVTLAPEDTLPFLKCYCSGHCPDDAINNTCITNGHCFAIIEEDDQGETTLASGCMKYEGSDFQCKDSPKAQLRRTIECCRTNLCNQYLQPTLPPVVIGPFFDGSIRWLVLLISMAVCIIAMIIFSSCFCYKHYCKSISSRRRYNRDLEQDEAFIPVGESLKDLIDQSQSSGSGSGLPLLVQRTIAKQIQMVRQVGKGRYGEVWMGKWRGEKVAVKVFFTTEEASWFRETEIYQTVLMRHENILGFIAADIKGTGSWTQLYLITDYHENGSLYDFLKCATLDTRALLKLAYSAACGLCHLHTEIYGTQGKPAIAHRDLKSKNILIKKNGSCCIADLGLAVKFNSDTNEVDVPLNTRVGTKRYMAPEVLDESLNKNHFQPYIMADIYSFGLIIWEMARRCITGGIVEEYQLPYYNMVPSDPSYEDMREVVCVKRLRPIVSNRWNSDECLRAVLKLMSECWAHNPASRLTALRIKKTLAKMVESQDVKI
Chain of ALK6 (O00238 14-502): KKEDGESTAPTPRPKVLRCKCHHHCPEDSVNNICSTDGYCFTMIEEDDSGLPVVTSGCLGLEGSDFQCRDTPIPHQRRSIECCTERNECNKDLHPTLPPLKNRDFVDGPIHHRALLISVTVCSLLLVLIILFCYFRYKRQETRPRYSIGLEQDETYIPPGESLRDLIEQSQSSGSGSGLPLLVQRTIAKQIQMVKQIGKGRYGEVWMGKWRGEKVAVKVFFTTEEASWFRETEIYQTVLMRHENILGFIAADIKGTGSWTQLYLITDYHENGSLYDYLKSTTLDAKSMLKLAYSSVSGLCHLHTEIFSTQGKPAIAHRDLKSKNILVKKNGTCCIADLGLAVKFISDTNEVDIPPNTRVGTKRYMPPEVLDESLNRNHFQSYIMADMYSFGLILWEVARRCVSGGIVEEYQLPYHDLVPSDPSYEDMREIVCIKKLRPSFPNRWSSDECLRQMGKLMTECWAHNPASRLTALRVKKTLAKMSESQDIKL
Chain of ALK1 (P37023 22-503): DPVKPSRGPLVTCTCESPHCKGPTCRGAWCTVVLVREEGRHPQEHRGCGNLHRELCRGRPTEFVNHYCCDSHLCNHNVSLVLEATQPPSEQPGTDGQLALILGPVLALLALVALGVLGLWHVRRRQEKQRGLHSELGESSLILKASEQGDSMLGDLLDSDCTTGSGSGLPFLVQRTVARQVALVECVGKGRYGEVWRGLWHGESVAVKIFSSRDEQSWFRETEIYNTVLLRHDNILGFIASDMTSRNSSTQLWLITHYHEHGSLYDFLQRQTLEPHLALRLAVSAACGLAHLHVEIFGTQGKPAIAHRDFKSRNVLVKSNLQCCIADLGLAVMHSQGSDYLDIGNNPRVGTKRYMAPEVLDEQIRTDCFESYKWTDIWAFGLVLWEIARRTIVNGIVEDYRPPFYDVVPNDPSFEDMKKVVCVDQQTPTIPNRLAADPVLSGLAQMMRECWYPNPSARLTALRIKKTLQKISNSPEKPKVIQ

| Structure (SMILES) | IC50 (ALK1) | IC50 (ALK3) | IC50 (ALK6) | IC50 (ALK4) | IC50 (ALK5) | IC50 (ALK2) |
| --- | --- | --- | --- | --- | --- | --- |
| C[C@H](O)c1cccc(-c2cnn3cc(-c4ccc(OC5(CN6C7CCC6CC7)CC5)cc4)cnc23)c1 [Compound 196, (S)-1-(3-(6-(4-(1-(7-azabicyclo[2.2.1]heptan-7-ylmethyl)cyclopropoxy)phenyl)pyrazolo[1,5-a]pyrimidin-3-yl)phenyl)ethanol] | 0.31 µM | 2.5 µM | 8.9 µM | > 10 µM | > 10 µM | 0.024 µM |
| C[C@H](O)c1cccc(-c2cnn3cc(-c4ccc(OCCN5CCCCC5)cc4)cnc23)c1 [Compound 201, (S)-1-(3-(6-(4-(2-(piperidin-1-yl)ethoxy)phenyl)pyrazolo[1,5-a]pyrimidin-3-yl)phenyl)ethanol] | 1 µM | 1 µM | > 10 µM | > 10 µM | > 10 µM | 0.043 µM |
| CS(=O)(=O)c1cccc(-c2cnn3cc(-c4ccc(CCn5ccnc5)cc4)cnc23)c1 [Compound 133, 6-(4-(2-(1H-imidazol-1-yl)ethyl)phenyl)-3-(3-(methylsulfonyl)phenyl)pyrazolo[1,5-a]pyrimidine] | 0.67 µM | > 10 µM | > 10 µM | > 10 µM | > 10 µM | 0.23 µM |
| C[C@@H](O)c1cccc(-c2cnn3cc(-c4ccc(CCN5CCC(O)CC5)cc4)cnc23)c1 [Compound 159, (R)-1-(4-(3-(3-(1-hydroxyethyl)phenyl)pyrazolo[1,5-a]pyrimidin-6-yl)phenethyl)piperidin-4-ol] | 1 µM | 6.1 µM | > 10 µM | > 10 µM | > 10 µM | 0.18 µM |
| NC(c1cccc(-c2cnn3cc(-c4ccc(OC5(CN6CCOCC6)CC5)cc4)cnc23)c1)C(F)(F)F (stereo not drawn) [Compound 181, 2,2,2-trifluoro-1-(3-(6-(4-(1-(morpholinomethyl)cyclopropoxy)phenyl)pyrazolo[1,5-a]pyrimidin-3-yl)phenyl)ethanamine] | 2 µM | 3.3 µM | > 10 µM | > 10 µM | > 10 µM | 0.07 µM |
| CS(=O)(=O)c1cc(-c2cnn3cc(-c4ccc(CCN5CCCCC5)cc4)cnc23)cc(C(F)(F)F)c1 [Compound 172, 3-(3-(methylsulfonyl)-5-(trifluoromethyl)phenyl)-6-(4-(2-(piperidin-1-yl)ethyl)phenyl)pyrazolo[1,5-a]pyrimidine] | > 10 µM | > 10 µM | > 10 µM | > 10 µM | > 10 µM | 1.2 µM |
| C[C@@H](O)c1cccc(-c2cnn3cc(-c4ccc(CCN5CCCC5)cc4)cnc23)c1 [Compound 156, (R)-1-(3-(6-(4-(2-(pyrrolidin-1-yl)ethyl)phenyl)pyrazolo[1,5-a]pyrimidin-3-yl)phenyl)ethanol] | 0.84 µM | 6.2 µM | > 10 µM | > 10 µM | > 10 µM | 0.16 µM |

Continued by falling IC50 (ALK1), values first:

| IC50 (ALK1) | IC50 (ALK3) | IC50 (ALK6) | IC50 (ALK4) | IC50 (ALK5) | IC50 (ALK2) | Structure (SMILES) |
| --- | --- | --- | --- | --- | --- | --- |
| 0.67 µM | > 10 µM | > 10 µM | > 10 µM | > 10 µM | 0.15 µM | CC(O)c1cccc(-c2cnn3cc(-c4ccc(C5CCCCN5)cc4)cnc23)c1 (stereo not drawn) [Compound 135, 1-(3-(6-(4-(piperidin-2-yl)phenyl)pyrazolo[1,5-a]pyrimidin-3-yl)phenyl)ethanol] |
| 0.65 µM | 4.8 µM | > 10 µM | > 10 µM | > 10 µM | 0.05 µM | NC1(c2ccc(-c3cnc4c(-c5ccc(S(N)(=O)=O)c6ccccc56)cnn4c3)cc2)CC1 [Compound 192, 4-(6-(4-(1-aminocyclopropyl)phenyl)pyrazolo[1,5-a]pyrimidin-3-yl)naphthalene-1-sulfonamide] |
| 0.62 µM | 7.6 µM | > 10 µM | > 10 µM | > 10 µM | 0.14 µM | CS(=O)(=O)c1cccc(-c2cnn3cc(-c4ccc(CCN5CCC(O)CC5)cc4)cnc23)c1 [Compound 140, 1-(4-(3-(3-(methylsulfonyl)phenyl)pyrazolo[1,5-a]pyrimidin-6-yl)phenethyl)piperidin-4-ol] |
| 0.56 µM | 1.6 µM | > 10 µM | > 10 µM | > 10 µM | 0.11 µM | CC(O)c1cccc(-c2cnn3cc(-c4ccc(OCCN5CCCCC5)cc4)cnc23)c1 (stereo not drawn) [Compound 142, 1-(3-(6-(4-(2-(piperidin-1-yl)ethoxy)phenyl)pyrazolo[1,5-a]pyrimidin-3-yl)phenyl)ethanol] |
| 0.5 µM | 2 µM | > 10 µM | > 10 µM | > 10 µM | 0.052 µM | C[C@H](O)c1cccc(-c2cnn3cc(-c4ccc(OC5(CN6CCC7(CC6)CNC7)CC5)cc4)cnc23)c1 [Compound 197, (S)-1-(3-(6-(4-(1-(2,7-diazaspiro[3.5]nonan-7-ylmethyl)cyclopropoxy)phenyl)pyrazolo[1,5-a]pyrimidin-3-yl)phenyl)ethanol] |
| 0.43 µM | > 10 µM | > 10 µM | > 10 µM | > 10 µM | 0.033 µM | CC(N)c1ccc(-c2cnc3c(-c4cccc([S+](C)(=O)[O-])c4)cnn3c2)cc1 (stereo not drawn) [Compound 187, 1-(4-(3-(3-(methylsulfonyl)phenyl)pyrazolo[1,5-a]pyrimidin-6-yl)phenyl)ethanamine] |
| 0.38 µM | 0.75 µM | 3.6 µM | > 10 µM | > 10 µM | 0.031 µM | C[S+](=O)([O-])c1cccc(-c2cnn3cc(-c4ccc(OC5(CN6CCOCC6)CC5)cc4)cnc23)c1 [Compound 179, 4-((1-(4-(3-(3-(methylsulfonyl)phenyl)pyrazolo[1,5-a]pyrimidin-6-yl)phenoxy)cyclopropyl)methyl)morpholine] |
| 0.12 µM | 0.22 µM | 0.33 µM | > 10 µM | > 10 µM | 0.016 µM | C[C@@H]1CNC[C@H](C)N1c1ccc(-c2cnc3c(-c4ccc(F)c(-c5nnn[nH]5)c4)cnn3c2)cc1 [Compound 72, 6-(4-((2R,6S)-2,6-dimethylpiperazin-1-yl)phenyl)-3-(4-fluoro-3-(1H-tetrazol-5-yl)phenyl)pyrazolo[1,5-a]pyrimidine] |
| 0.051 µM | 0.271 µM | 1.08 µM | 6.6 µM | 59.6 µM | 0.017 µM | C[C@@H]1CNC[C@H](C)N1c1ccc(-c2cnc3c(-c4cccc5ccccc45)cnn3c2)cc1 [Compound 31, 6-(4-((2R,6S)-2,6-dimethylpiperazin-1-yl)phenyl)-3-(naphthalen-1-yl)pyrazolo[1,5-a]pyrimidine] |
